This note sets out measurements from paper PMC5147970 (Biochemistry, 2015).

The target in experiment [1] is chymotrypsin-truncated R67 dihydrofolate reductase. Put plainly: AUC.
For experiment [2], the target named is T1, R67 dihydrofolate reductase (R67 DHFR) (Escherichia coli, UniProt P00383).
T1 sequence (P00383 1-78): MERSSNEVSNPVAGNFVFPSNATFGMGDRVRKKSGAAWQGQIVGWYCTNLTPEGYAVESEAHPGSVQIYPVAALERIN
The experiment can be described thus: steady-state DHFR inhibition vs DHF. The class given is biochemical.

The target in experiment [3] is T2, R67 dihydrofolate reductase (K33M) (Escherichia coli, UniProt P00383, K33M).
T2 sequence (P00383 4-78 K33M): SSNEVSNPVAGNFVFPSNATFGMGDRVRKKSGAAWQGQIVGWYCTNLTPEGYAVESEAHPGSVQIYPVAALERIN
Put plainly: folate reduction kinetics. The class given is biochemical.

For experiment [4], the target named is T1, R67 dihydrofolate reductase (R67 DHFR). The experiment can be described thus: steady-state DHFR inhibition, Lineweaver–Burk slope replot. The class given is biochemical.
The target in experiment [5] is chymotrypsin-truncated R67 dihydrofolate reductase cross-linked to folate with EDC. Put plainly: AUC.

“And” between values parts separate entries of the source, which are not always exact repeats. Identical values can stand only once.

Usually stoichiometry N stands for the number of molecules, sites or subunits per partner or assembly. “chymotrypsin-truncated R67 dihydrofolate reductase (enzyme)”: the stoichiometry N in experiment [1] is 4 and 2.

Usually Ki stands for the dissociation constant of the complex between target and ligand, obtained from inhibition or displacement. Lower therefore signals a stronger hold on the target. For the molecule `Nc1nc(=O)c2nc(CNc3ccc(C(=O)N[C@@H](CCC(=O)O)C(=O)O)cc3)cnc2[nH]1` [folate], in experiment [2], the Ki was 16 ± 3 µM. Moreover, the “folate reduction kinetics (kcat) and EDC cross-linking inactivation” value in experiment [3] worked out at 0.065 ± 0.017 min^–1. The molecule `NCCNC(=O)CC[C@H](NC(=O)c1ccc(NCc2cnc3nc(N)[nH]c(=O)c3n2)cc1)C(=O)NCCN` [bis-EDA–folate] yielded a Ki in experiment [4] of 140 ± 15 µM.

In turn, “chymotrypsin-truncated R67 dihydrofolate reductase cross-linked to folate with EDC (enzyme)” returned a stoichiometry N in experiment [5] of 4.
